Reference: US11271238B2, “Applications of low-cost, thermal and electrochemically stable organic compounds as high performance redox active materials in redox flow batteries” (Utah State University, priority 2018, dated 2022)
Read-outs that look alike come from different tables or passages of the source. One block for each molecule: values may come before it.

Assays:
[1] = Cyclic voltammetry in 0.5 M NaCl; type: physicochemical
Experimental: Cyclic voltammetry was further used to characterize [(NPr)2TTz]Cl4.r All cyclic voltammetry experiments were conducted in an N2 purged 0.5 M NaCl aqueous solution with a Gamry 1000E potentiostat. A 3 mm PEEK encased glassy carbon disk was used as the working electrode. The working electrode was polished with 0.05 micron Al2O3 powder and rinsed with deionized H2O. A glassy carbon rod was used as the counter electrode. A silver wire coated with AgCl and suspended in 3.0 M KCl electrolyte was used as the reference electrode. The two redox peaks of [(NPr)2TTz]Cl4 were distinguished by peak fitting of its CV curve in the Origin program after removing background current.

[2] = Linear sweep voltammetry with rotating disk electrode (Levich plot); type: physicochemical; conditions: 1.0 mM in 0.5 M NaCl, Levich equation
Experimental: Linear sweep voltammetry (LSV) experiments were conducted using a Gamry 1000E potentiostat with a three-electrode system. A 5 mm diameter rotating glassy carbon disk encased in Teflon served as the working electrode. A glassy carbon rod was used as the counter electrode. An Ag/AgCl wire served as the reference electrode. The working electrode was cleaned using the same method as in the CV experiments. During the experiments, the working electrode rotated from 300 rpm to 2400 rpm at increments of 300 rpm. Three scans at each rotation rate were collected to ensure accuracy. LSV scans were conducted at a rate of 5 mV/s from 0.2 V to 0.8 V versus NHE.

Aqueous solubility = type: physicochemical
[3] = Electron transfer rate constant by Nicholson's method; type: physicochemical
Experimental: The electron transfer rate constants (k^0) for the electron transfers of [([…]]^3+ were estimated. Following the well-known Nicholson's method (R. S. Nicholson, Anal. Chem. 1965, 37, 1351-1355.), a solution containing 4.0 mM [(NPr)2TTz]Cl4 with 0.5 M NaCl was used to record CV curves (FIG. 6A and FIG. 6B). The peak-to-peak separation (reduction and oxidation peak potential gap), ΔEp, was obtained and used to calculate the kinetic parameter, Ψ, using Equation 2. And then, k^0 was calculated from equation 3 based on the relationship between Ψ and ν^-1/2. Ψ=(-0.6288+0.0021ΔEp)/(1-0.017ΔEp) (Equation 2) Ψ=k^0[πDnF/RT]^-1/2ν^-1/2 (Equation 3) where F, D, and n are defined in Equation 1, R=8.314, and ν represents the scan rate.

[4] = Oxygen sensitivity of the reduced state (bubbling with air for 10 minutes); type: physicochemical
[5] = cited from earlier work
[6] = 500 mV/s scan rate, 4.0 mM in 0.5 M NaCl

Molecule: C[n+]1ccc(-c2cc[n+](C)cc2)cc1 [Methyl viologen]
air sensitivity of reduced states ([5]; MV^+ and MV^0): highly air sensitive
solubility of charge-neutral state in aqueous solution ([5]; aqueous solution): insolubility

Molecule: C[n+]1ccc(-c2nc3sc(-c4cc[n+](C)cc4)nc3s2)cc1.[Cl-].[Cl-] [(Me2TTz)Cl2, N,N′-dimethyl 2,5-bis(4-pyridinium)thiazolo[5,4-d]thiazole Dichloride]
water solubility (Aqueous solubility; in water): < 10 mm

Continued, in another order:

single-electron oxidation potential ([1]; neutral NaCl solution): +1.0 V (vs. NHE)
Molecule: N, N, N, 2, 2, 6, 6-Heptamethylpiperidinyloxy-4-ammonium Chloride [N^Me-TEMPO, reference compound]

E1/2 of 1st electron reduction ([(NPr)2TTz]^4+/3+) ([1]; 4.0 mM in 0.5 M NaCl): −0.38 V vs. NHE
E1/2 of 2nd electron reduction ([(NPr)2TTz]^3+/2+) ([1]; 4.0 mM in 0.5 M NaCl): −0.50 V vs. NHE
average redox potential of the two single-electron reductions ([1]; neutral NaCl solution): -0.44 V
average diffusion coefficient (D) for [(NPr)2TTz]^4+ and [(NPr)2TTz]^3+ [2]: 3.15×10^−6 cm^2 s^−1
solubility (Aqueous solubility; 2.0 m NaCl aqueous solution, saline or isotonic, in 2.0 m NaCl, read-out: solubility in 2.0 m NaCl): 1100 mM
charge capacity corresponding to solubility (Aqueous solubility; in 2.0 m NaCl): 60.0 Ah L^−1
charge capacity corresponding to solubility (Aqueous solubility; in H2O): 69.7 Ah L^−1
solubility (Aqueous solubility; water, in H2O, read-out: solubility in water): 1300 mM
peak-to-peak separation ΔEp, 1st electron reduction [3, 6]: 53 mV
peak-to-peak separation ΔEp, 2nd electron reduction [3, 6]: 58 mV
Molecule: C[N+](C)(C)CCC[n+]1ccc(-c2nc3sc(-c4cc[n+](CCC[N+](C)(C)C)cc4)nc3s2)cc1.[Cl-].[Cl-].[Cl-].[Cl-] [[(NPr)2TTz]Cl4, 4,4′-(thiazolo[5,4-d]thiazole-2,5-diyl)bis(1-(3-(trimethylammonio)propyl)pyridin-1-ium) tetrachloride]
electron transfer rate constant k^0, both single-electron reductions ([3]; lower limit, Ψ=20, 500 mV/s): greater than 0.28 cm/s

oxygen sensitivity of the two-electron reduced state [4]: no change in color
Molecule: C[N+](C)(C)CCCN1C=CC(=c2nc3sc(=C4C=CN(CCC[N+](C)(C)C)C=C4)nc3s2)C=C1.[Cl-].[Cl-] [[(NPr)2TTz]Cl2, 3,3′-(thiazolo[5,4-d]thiazole-2,5-diylidenebis(pyridin-1(4H)-yl-4(4H)-ylidene))bis(N,N,N-trimethylpropan-1-aminium) Dichloride]
